Type in all cases: biochemical
Test [1] addresses PAK5 (Homo sapiens, UniProt Q9P286). The test can be described thus: Kinase profiling PAK5. The following applies: 100 micromolar inhibitor concentration, 100 is no change; for remaining activity at 100 µM: read-out: residual kinase activity, PAK5. The text has this:
(§1) Any value less that 25 is considered to be highly significant inhibition.

The target of test [2] is MARK2 (Homo sapiens, UniProt Q7KZI7). Briefly: Kinase profiling MARK2. The settings on record: 100 micromolar inhibitor concentration, 100 is no change; for remaining activity at 100 µM: read-out: residual kinase activity, MARK2.
Source text: as §1

Test [3] has as its target T1, TGFBR1 (Homo sapiens, UniProt P36897).
T1 sequence (P36897 34-503): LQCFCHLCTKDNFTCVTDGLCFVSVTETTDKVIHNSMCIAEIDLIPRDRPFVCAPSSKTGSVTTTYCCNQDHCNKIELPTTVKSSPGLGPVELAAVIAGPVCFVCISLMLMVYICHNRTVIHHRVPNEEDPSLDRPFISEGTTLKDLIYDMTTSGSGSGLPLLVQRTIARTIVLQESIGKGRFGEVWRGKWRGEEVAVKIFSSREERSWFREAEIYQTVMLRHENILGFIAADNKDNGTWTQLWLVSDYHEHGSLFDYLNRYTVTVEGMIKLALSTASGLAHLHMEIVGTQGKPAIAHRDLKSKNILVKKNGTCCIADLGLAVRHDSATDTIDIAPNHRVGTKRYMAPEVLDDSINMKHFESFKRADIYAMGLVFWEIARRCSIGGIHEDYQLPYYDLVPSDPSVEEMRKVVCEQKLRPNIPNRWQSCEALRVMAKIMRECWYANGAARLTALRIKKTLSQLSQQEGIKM
Briefly: Kinase profiling TGFBR1. The settings on record: 100 micromolar inhibitor concentration, 100 is no change; for remaining activity at 100 µM: read-out: residual kinase activity, TGFBR1.
Source text: as §1

Test [4] has as its target T2, EPH-B3 (Homo sapiens, UniProt P54753).
T2 sequence (P54753 34-998): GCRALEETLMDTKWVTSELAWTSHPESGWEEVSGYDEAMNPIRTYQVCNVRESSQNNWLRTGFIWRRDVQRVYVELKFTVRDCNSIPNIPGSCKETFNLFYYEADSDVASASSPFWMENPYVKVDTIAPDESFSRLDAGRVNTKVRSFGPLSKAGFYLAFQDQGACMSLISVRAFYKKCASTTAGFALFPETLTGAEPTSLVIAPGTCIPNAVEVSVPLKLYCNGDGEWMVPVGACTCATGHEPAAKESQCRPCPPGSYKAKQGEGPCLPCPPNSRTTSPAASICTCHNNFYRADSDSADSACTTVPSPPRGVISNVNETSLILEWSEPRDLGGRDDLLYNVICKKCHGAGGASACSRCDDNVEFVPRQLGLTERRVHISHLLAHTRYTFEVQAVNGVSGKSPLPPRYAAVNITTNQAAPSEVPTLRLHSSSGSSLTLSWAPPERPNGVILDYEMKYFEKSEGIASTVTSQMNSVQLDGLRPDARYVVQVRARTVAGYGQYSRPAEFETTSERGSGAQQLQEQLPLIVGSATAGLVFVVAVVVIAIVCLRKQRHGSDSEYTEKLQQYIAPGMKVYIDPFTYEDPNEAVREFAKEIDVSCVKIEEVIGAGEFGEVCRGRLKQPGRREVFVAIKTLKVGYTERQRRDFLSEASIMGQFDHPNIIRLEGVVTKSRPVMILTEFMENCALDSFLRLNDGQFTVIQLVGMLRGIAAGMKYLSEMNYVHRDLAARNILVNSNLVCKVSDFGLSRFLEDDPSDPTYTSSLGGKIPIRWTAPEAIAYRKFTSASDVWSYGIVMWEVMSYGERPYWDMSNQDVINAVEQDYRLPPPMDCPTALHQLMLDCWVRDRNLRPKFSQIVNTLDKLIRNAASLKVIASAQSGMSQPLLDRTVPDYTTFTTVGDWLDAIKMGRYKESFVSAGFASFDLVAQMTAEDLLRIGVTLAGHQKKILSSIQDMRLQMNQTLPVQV
The test can be described thus: Kinase profiling EPH-B3. The following applies: 100 micromolar inhibitor concentration, 100 is no change; for remaining activity at 100 µM: read-out: residual kinase activity, EPH-B3.
Source text: as §1

Test [5] has as its target IRR (Homo sapiens, UniProt P14616). Briefly: Kinase profiling IRR. The settings on record: 100 micromolar inhibitor concentration, 100 is no change; for remaining activity at 100 µM: read-out: residual kinase activity, IRR.
Source text: as §1

For test [6], the target named is MINK1 (Homo sapiens, UniProt Q8N4C8). The test can be described thus: Kinase profiling MINK1. The following applies: 100 micromolar inhibitor concentration, 100 is no change; for remaining activity at 100 µM: read-out: residual kinase activity, MINK1.
Source text: as §1

Test [7] concerns the target MEKK1 (Homo sapiens, UniProt Q13233). Briefly: Kinase profiling MEKK1. The following applies: 100 micromolar inhibitor concentration, 100 is no change; for remaining activity at 100 µM: read-out: residual kinase activity, MEKK1.
Source text: as §1

Test [8] deals with T3, ULK2 (Homo sapiens, UniProt Q8IYT8).
T3 sequence (Q8IYT8 1-1036): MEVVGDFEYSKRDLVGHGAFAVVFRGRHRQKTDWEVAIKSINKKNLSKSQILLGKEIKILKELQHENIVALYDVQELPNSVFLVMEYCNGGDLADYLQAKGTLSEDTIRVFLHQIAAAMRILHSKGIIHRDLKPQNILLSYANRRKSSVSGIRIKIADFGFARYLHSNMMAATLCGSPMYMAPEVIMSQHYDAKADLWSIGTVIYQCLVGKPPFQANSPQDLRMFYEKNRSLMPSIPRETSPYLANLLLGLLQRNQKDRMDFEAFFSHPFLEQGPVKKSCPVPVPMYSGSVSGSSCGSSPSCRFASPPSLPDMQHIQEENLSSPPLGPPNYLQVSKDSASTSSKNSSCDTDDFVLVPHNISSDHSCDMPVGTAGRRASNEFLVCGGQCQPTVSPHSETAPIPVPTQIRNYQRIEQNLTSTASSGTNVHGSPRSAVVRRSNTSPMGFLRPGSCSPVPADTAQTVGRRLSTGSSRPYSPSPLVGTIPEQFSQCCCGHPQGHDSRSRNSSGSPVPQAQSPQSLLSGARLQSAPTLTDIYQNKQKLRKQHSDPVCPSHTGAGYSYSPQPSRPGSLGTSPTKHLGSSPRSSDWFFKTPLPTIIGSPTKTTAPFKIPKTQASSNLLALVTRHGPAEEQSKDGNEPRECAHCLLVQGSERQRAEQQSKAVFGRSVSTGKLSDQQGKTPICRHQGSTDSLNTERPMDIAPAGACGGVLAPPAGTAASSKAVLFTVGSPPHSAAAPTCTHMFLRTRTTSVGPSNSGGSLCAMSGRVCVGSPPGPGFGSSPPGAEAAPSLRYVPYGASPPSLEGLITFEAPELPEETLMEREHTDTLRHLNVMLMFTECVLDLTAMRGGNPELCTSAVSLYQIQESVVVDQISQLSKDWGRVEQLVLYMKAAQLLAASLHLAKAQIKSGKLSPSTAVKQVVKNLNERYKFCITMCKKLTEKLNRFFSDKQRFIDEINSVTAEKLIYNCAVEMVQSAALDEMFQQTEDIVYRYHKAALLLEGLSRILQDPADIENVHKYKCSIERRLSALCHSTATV
The test can be described thus: Kinase profiling ULK2. The settings on record: 100 micromolar inhibitor concentration, 100 is no change; for remaining activity at 100 µM: read-out: residual kinase activity, ULK2.
Source text: as §1

In test [9] the test system is AMPK. The test can be described thus: Kinase profiling AMPK. The following applies: 100 micromolar inhibitor concentration; 100 is no change.
Source text: as §1

Test [10] concerns the target YES1 (Homo sapiens, UniProt P07947). Briefly: Kinase profiling YES1. The settings on record: 100 micromolar inhibitor concentration, 100 is no change; for remaining activity at 100 µM: read-out: residual kinase activity, YES1.
Source text: as §1

Test [11] concerns the target ERK5 (Homo sapiens, UniProt Q13164). The test can be described thus: Kinase profiling ERK5. The settings on record: 100 micromolar inhibitor concentration, 100 is no change; for remaining activity at 100 µM: read-out: residual kinase activity, ERK5.
Source text: as §1

Results on five compounds are retold here after patent US10231954B2, “Neurodegenerative therapies” (LYTIX BIOPHARMA AS, priority 2014, dated 2019).

Sequence of IRR (P14616 27-1297, species assumed): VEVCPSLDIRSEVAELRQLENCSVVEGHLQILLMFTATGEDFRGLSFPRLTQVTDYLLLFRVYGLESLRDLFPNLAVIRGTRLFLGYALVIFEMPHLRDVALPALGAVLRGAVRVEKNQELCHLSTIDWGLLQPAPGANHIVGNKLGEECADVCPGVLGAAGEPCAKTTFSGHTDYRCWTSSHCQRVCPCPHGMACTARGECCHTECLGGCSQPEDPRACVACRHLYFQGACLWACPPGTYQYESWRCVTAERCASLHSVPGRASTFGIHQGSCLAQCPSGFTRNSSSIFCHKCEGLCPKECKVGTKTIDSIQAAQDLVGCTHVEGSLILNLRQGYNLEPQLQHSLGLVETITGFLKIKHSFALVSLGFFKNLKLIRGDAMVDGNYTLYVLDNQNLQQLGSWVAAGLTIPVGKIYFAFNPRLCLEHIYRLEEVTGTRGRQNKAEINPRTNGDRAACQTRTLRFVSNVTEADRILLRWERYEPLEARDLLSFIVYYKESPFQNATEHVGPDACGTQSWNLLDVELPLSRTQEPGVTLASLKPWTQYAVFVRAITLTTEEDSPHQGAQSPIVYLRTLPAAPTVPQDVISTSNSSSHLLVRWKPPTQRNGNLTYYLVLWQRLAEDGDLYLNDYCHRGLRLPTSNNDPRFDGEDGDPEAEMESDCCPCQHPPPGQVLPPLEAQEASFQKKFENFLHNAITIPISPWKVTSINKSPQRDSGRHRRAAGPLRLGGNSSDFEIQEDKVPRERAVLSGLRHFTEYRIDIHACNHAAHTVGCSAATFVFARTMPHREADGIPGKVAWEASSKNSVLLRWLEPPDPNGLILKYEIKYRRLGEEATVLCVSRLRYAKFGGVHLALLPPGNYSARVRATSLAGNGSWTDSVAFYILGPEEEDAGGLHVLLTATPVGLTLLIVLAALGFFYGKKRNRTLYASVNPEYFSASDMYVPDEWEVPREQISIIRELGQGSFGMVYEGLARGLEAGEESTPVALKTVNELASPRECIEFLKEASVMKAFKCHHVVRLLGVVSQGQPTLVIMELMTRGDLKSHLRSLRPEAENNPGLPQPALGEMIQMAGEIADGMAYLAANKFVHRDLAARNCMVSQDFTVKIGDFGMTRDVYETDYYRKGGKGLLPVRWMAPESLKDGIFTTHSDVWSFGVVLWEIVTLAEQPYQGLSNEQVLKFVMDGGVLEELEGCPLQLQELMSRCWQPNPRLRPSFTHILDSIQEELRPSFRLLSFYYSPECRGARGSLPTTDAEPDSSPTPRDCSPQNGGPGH
Sequence of YES1 (P07947 whole entry, species assumed): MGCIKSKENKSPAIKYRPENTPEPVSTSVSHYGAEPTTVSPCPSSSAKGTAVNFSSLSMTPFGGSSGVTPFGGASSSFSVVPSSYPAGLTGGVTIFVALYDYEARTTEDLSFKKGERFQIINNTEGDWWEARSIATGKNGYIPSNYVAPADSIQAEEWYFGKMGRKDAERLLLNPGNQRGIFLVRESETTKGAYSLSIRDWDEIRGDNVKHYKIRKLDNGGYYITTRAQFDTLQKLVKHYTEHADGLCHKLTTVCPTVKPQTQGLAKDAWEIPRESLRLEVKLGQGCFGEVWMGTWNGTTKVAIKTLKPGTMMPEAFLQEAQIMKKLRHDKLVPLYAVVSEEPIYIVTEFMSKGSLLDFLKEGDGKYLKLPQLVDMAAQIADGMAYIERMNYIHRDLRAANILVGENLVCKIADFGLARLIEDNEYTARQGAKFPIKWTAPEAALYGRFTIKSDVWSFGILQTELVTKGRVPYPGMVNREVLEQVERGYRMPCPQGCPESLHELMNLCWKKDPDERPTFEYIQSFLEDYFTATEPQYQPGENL
Sequence of ERK5 (Q13164 whole entry, species assumed): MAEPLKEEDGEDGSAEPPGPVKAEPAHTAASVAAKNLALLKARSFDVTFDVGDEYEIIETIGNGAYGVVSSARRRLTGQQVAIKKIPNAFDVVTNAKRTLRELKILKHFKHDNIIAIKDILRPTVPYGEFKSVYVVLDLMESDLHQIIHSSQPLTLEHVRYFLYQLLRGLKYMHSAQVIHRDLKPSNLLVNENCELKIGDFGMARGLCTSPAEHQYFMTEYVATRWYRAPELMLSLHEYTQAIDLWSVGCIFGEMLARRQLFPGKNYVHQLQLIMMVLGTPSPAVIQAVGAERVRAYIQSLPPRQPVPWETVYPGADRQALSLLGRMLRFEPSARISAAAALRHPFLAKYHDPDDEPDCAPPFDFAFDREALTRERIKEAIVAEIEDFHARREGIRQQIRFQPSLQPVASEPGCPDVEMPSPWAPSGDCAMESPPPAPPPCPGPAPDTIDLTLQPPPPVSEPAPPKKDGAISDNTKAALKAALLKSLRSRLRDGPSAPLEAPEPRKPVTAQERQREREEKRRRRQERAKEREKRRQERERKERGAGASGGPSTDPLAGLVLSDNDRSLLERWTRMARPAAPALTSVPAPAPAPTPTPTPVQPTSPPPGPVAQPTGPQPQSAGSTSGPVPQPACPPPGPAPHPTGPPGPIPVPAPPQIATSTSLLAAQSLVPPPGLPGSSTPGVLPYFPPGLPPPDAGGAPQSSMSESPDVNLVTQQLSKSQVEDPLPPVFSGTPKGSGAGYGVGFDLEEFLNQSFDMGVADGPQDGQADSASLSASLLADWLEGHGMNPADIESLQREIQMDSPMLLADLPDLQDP
Sequence of PAK5 (Q9P286 whole entry): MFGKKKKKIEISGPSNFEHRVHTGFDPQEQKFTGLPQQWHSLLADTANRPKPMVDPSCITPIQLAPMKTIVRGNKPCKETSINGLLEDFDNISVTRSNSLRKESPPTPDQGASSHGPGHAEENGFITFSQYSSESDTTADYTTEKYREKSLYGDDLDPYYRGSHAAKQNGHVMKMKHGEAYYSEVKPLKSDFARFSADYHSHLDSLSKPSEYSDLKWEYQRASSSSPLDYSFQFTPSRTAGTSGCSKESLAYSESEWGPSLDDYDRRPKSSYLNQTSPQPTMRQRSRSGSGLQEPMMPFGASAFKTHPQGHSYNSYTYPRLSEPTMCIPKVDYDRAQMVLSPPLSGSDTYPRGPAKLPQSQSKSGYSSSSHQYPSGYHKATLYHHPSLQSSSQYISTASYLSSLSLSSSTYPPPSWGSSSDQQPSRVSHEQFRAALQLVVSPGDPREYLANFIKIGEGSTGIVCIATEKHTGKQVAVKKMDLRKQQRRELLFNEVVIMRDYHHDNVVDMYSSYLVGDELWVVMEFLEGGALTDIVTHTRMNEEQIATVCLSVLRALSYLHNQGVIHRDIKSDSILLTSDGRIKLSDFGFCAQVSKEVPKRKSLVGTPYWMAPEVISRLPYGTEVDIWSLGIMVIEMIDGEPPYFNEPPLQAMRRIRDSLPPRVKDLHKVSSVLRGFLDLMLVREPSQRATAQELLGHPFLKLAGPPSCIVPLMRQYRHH
Sequence of MINK1 (Q8N4C8 whole entry, species assumed): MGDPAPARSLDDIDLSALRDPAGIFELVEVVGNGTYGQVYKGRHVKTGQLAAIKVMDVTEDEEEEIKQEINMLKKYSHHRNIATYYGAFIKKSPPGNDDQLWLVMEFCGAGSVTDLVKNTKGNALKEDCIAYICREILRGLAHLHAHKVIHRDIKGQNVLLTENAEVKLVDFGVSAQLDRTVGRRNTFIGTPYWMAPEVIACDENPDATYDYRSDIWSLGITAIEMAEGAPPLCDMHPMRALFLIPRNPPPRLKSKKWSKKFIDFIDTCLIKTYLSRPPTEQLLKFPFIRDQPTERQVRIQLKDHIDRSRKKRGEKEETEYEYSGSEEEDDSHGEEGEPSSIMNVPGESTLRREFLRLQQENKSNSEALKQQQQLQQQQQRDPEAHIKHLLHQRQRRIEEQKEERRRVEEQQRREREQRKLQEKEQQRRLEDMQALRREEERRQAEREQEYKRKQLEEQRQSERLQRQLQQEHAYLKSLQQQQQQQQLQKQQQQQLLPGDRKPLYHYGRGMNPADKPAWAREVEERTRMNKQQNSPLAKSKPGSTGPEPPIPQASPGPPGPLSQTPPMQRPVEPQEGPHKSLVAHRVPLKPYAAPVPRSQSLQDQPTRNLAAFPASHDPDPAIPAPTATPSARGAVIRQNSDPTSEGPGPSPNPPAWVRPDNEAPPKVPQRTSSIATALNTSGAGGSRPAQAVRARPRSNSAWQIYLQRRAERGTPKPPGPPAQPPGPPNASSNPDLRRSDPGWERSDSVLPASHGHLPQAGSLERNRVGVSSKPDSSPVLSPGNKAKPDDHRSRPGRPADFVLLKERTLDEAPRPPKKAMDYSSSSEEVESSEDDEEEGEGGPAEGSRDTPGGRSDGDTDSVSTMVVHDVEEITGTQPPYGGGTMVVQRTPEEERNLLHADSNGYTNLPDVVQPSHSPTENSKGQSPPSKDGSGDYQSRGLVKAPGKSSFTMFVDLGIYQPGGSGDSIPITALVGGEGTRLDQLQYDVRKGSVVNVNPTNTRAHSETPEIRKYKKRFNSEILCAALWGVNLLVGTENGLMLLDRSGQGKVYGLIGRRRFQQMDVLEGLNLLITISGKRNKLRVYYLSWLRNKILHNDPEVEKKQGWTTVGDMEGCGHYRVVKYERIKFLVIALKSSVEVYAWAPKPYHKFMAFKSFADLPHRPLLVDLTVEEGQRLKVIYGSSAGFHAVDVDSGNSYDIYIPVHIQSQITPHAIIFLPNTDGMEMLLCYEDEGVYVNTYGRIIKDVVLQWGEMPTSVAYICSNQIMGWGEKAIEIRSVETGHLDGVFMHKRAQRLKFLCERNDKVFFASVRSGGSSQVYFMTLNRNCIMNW

Turning to `CC(=O)Nc1nc2cc(C(F)(F)F)ccc2s1` [Compound 03-73], the remaining activity at 100 µM in test [1] came to 85%; in test [2] it was 99%; in test [3], 118%; in test [4] it was 114%; in [5], 61%; in test [6], 77%. Further, the remaining activity at 100 µM in test [7] stood at 111%; in test [8] it was 88%; in [10], 108%; in test [11], 67%. The “residual kinase activity, AMPK” value in test [9] stood at 75.
Turning to `CC(=O)Nc1nc2cc(C)ccc2s1` [Compound 03-76], the “residual kinase activity, PAK5” value in test [1] was 107. In addition, the “residual kinase activity, MARK2” value in [2] amounted to 97. The “residual kinase activity, TGFBR1” value in test [3] was 98. Further, in test [4], the “residual kinase activity, EPH-B3” value turned out to be 107. The “residual kinase activity, IRR” value in test [5] is 66. Moreover, the “residual kinase activity, MINK1” value in [6] stood at 63. In [7], the “residual kinase activity, MEKK1” value came to 107. In addition, the “residual kinase activity, ULK2” value in test [8] was 88. Also, the “residual kinase activity, AMPK” value in [9] is 77. In addition, the “residual kinase activity, YES1” value in test [10] is given as 104. For the same compound, the “residual kinase activity, ERK5” value in test [11] is recorded as 62.
With `CC(=O)Nc1nc2cc(F)ccc2s1` [Compound 03-77], the remaining activity at 100 µM in [1] amounted to 111%; in test [2] it was 79%; in test [3], 96%; in test [4] it was 113%; in test [5], 57%; in test [6], 65%. Moreover, the remaining activity at 100 µM was determined as 102% in test [7], 83% in test [8], 85% in test [10] and 38% in test [11]. Also, in test [9], the “residual kinase activity, AMPK” value was 73.
On to `O=C(Nc1nc2ccc(O)cc2s1)c1ccncc1` [Compound 08-42], for which the “residual kinase activity, PAK5” value in test [1] is reported as 79. For the same compound, the “residual kinase activity, MARK2” value in test [2] stood at 67. The “residual kinase activity, TGFBR1” value in test [3] is reported as 106. The “residual kinase activity, EPH-B3” value in [4] was found to be 88. The “residual kinase activity, IRR” value in test [5] is reported as 71. In test [6], the “residual kinase activity, MINK1” value was found to be 37. For the same compound, the “residual kinase activity, MEKK1” value in test [7] was found to be 76. Besides, in test [8], the “residual kinase activity, ULK2” value amounted to 63. In test [9], the “residual kinase activity, AMPK” value was 61. For the same compound, the “residual kinase activity, YES1” value in test [10] was 79. The “residual kinase activity, ERK5” value in [11] came to 41.
With `O=C(Nc1nc2ccc(O)cc2s1)c1cccnc1` [Compound 08-44], the “residual kinase activity, PAK5” value in test [1] was found to be 88. Further, the “residual kinase activity, MARK2” value in test [2] was determined as 74. Besides, in [3], the “residual kinase activity, TGFBR1” value was determined as 103. Moreover, the “residual kinase activity, EPH-B3” value in [4] came out at 65. Also, in [5], the “residual kinase activity, IRR” value is listed as 45. Also, in test [6], the “residual kinase activity, MINK1” value came to 19. The “residual kinase activity, MEKK1” value in [7] is recorded as 107. In addition, the “residual kinase activity, ULK2” value in [8] stood at 84. Moreover, the “residual kinase activity, AMPK” value in [9] turned out to be 48. In addition, the “residual kinase activity, YES1” value in test [10] came out at 74. Moreover, in [11], the “residual kinase activity, ERK5” value came out at 43.
